Patent US10294202B2, “Pyrrolidinones as herbicides” (FMC Corporation, priority 2013, dated 2019)

Key:
Experiment in all cases: Test A pre-/postemergence herbicide test
crabgrass, large = format: in vivo, Digitaria sanguinalis
Method in brief: (§1)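 Formulated compound (non-phytotoxic solvent, surfactant) sprayed pre- onto soil of seeded loam/sand pots or post- onto seedlings at 1–2 leaves; ~10 d greenhouse; 0–100 visual control rating versus untreated.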

morningglory = format: in vivo, Ipomoea spp.
Method in brief: as §1

velvetleaf = format: in vivo, Abutilon theophrasti
Method in brief: as §1

ryegrass, Italian = format: in vivo, Lolium multiflorum
Method in brief: as §1

[1] = Postemergence, 125 g ai/ha, 0 to 100 scale, 0 no effect, 100 complete control
[2] = Postemergence, 500 g ai/ha, 0 to 100 scale (0 no effect, 100 complete control)
[3] = Preemergence, 125 g ai/ha, visual rating on 0 to 100 scale (0 no effect, 100 complete control)
[4] = preemergence, 500 g ai/ha, 0 to 100 scale
[5] = Postemergence, 125 g ai/ha, 0 to 100 scale, 0 is no effect, 100 is complete control
[6] = Preemergence, 125 g ai/ha, 0 to 100 scale where 0 is no effect and 100 is complete control
[7] = preemergence, 500 g ai/ha, 0 to 100 scale, 0 is no effect and 100 is complete control
[8] = Postemergence, 125 g ai/ha, visual rating on 0 to 100 scale (0 no effect, 100 complete control), approx. 10 days
[9] = Preemergence, 500 g ai/ha, visual rating on 0 to 100 scale (0 no effect, 100 complete control)

SMILES: O=C1NCC(c2ccc(F)c(C(F)(F)F)c2)C1C(=O)Nc1ccccc1C(F)(F)F (racemic) [Compound 78]
- Plant response rating, Crabgrass, Large (crabgrass, large; [1]): 70
- Plant response rating, Crabgrass, Large (crabgrass, large; [2]): 80
- Crabgrass, Large plant response rating (crabgrass, large; [3]): 90
- Plant response rating, Crabgrass, Large (crabgrass, large; [4]): 90
- Plant response rating, Morningglory (morningglory; [1]): 0
- Plant response rating, Morningglory (morningglory; [2]): 0
- Morningglory plant response rating (morningglory; [3]): 0
- Plant response rating, Morningglory (morningglory; [4]): 0
- Plant response rating, Velvetleaf (velvetleaf; [1]): 20
- Plant response rating, Velvetleaf (velvetleaf; [2]): 60
- Velvetleaf plant response rating (velvetleaf; [3]): 0
- Plant response rating, Velvetleaf (velvetleaf; [4]): 30

SMILES: O=C1NCC(c2ccc(C(F)(F)F)c(F)c2)C1C(=O)Nc1ccccc1F (racemic) [Compound 246]
- Plant response rating, Crabgrass, Large (crabgrass, large; [5]): 50
- Plant response rating, Crabgrass, Large (crabgrass, large; [2]): 60
- Plant response rating, Crabgrass, Large (crabgrass, large; [6]): 90
- Plant response rating, Crabgrass, Large (crabgrass, large; [7]): 90
- Plant response rating, Morningglory (morningglory; [5]): 0
- Plant response rating, Morningglory (morningglory; [2]): 0
- Plant response rating, Morningglory (morningglory; [6]): 0
- Plant response rating, Morningglory (morningglory; [7]): 0
- Plant response rating, Velvetleaf (velvetleaf; [5]): 0
- Plant response rating, Velvetleaf (velvetleaf; [2]): 0
- Plant response rating, Velvetleaf (velvetleaf; [6]): 0
- Plant response rating, Velvetleaf (velvetleaf; [7]): 0

SMILES: O=C1NCC(c2ccc(C(F)(F)F)nc2)C1C(=O)Nc1ccccc1F (racemic) [Compound 262]
- Plant response rating, Crabgrass, Large (crabgrass, large; [5]): 70
- Plant response rating, Crabgrass, Large (crabgrass, large; [2]): 80
- Plant response rating, Crabgrass, Large (crabgrass, large; [6]): 90
- Plant response rating, Crabgrass, Large (crabgrass, large; [7]): 90
- Plant response rating, Morningglory (morningglory; [5]): 0
- Plant response rating, Morningglory (morningglory; [2]): 0
- Plant response rating, Morningglory (morningglory; [6]): 0
- Plant response rating, Morningglory (morningglory; [7]): 0
- Plant response rating, Velvetleaf (velvetleaf; [6]): 0
- Plant response rating, Velvetleaf (velvetleaf; [7]): 0

SMILES: O=C1NCC(c2ccc(C(F)(F)F)cc2)C1C(=O)Nc1ccccc1Cl (stereo not shown) [Compound 233]
- Plant response rating, Ryegrass, Italian (ryegrass, Italian; 125 g ai/ha, visual rating, 0 to 100 scale, 0 no effect, 100 complete control, approximately 10 days, preemergence): 30
- Plant response rating, Ryegrass, Italian (ryegrass, Italian; [5]): 20
- Ryegrass, Italian plant response rating (0 to 100 scale, 0 is no effect, 100 is complete control) (ryegrass, Italian; Postemergence, 500 g ai/ha): 40
- Plant response rating, Ryegrass, Italian (ryegrass, Italian; [7]): 60

SMILES: O=C1NCC(c2cccc(C(F)(F)F)c2)C1C(=O)Nc1cccc(F)c1F (stereo not shown) [Compound 241]
- Plant response rating, Crabgrass, Large (crabgrass, large; [5]): 70
- Plant response rating, Crabgrass, Large (crabgrass, large; [2]): 80
- Plant response rating, Crabgrass, Large (crabgrass, large; [6]): 90
- Plant response rating, Crabgrass, Large (crabgrass, large; [7]): 90
- Plant response rating, Morningglory (morningglory; [5]): 20
- Plant response rating, Morningglory (morningglory; [2]): 30
- Plant response rating, Morningglory (morningglory; [6]): 0
- Plant response rating, Morningglory (morningglory; [7]): 0
- Plant response rating, Velvetleaf (velvetleaf; [5]): 0
- Plant response rating, Velvetleaf (velvetleaf; [2]): 20
- Plant response rating, Velvetleaf (velvetleaf; [6]): 0
- Plant response rating, Velvetleaf (velvetleaf; [7]): 0

SMILES: O=C(Nc1ccccc1F)C1C(=S)NCC1c1cccc(C(F)(F)F)c1 (stereo not shown) [Compound 274]
- Plant response rating, Ryegrass, Italian (ryegrass, Italian; [8]): 0
- Plant response rating, Ryegrass, Italian (ryegrass, Italian; Postemergence, 1000 g ai/ha, 0 to 100 scale (0 no effect, 100 complete control)): 20
- Plant response rating, Ryegrass, Italian (ryegrass, Italian; preemergence, 1000 g ai/ha, 0 to 100 scale): 40

SMILES: CN1CC(c2ccc(C(F)(F)F)cc2)C(C(=O)Nc2ccccc2F)C1=O (stereo not shown) [Compound 304]
- Plant response rating, Ryegrass, Italian (ryegrass, Italian; [8]): 50
- Plant response rating, Ryegrass, Italian (ryegrass, Italian; [2]): 50
- Plant response rating, Ryegrass, Italian (ryegrass, Italian; [6]): 0
- Ryegrass, Italian plant response rating (ryegrass, Italian; [9]): 0

SMILES: O=C1NCC(c2cccc(Br)c2)C1C(=O)Nc1ccccc1F (stereo not shown) [Compound 307]
- Plant response rating, Ryegrass, Italian (ryegrass, Italian; [8]): 0
- Plant response rating, Ryegrass, Italian (ryegrass, Italian; [2]): 0
- Plant response rating, Ryegrass, Italian (ryegrass, Italian; [6]): 0
- Ryegrass, Italian plant response rating (ryegrass, Italian; [9]): 0

SMILES: O=C1NCC(c2cccc(C(F)(F)F)c2)C1C(=O)Nc1ccc(F)c(F)c1F (stereo not shown) [Compound 315]
- Plant response rating, Ryegrass, Italian (ryegrass, Italian; [8]): 20
- Plant response rating, Ryegrass, Italian (ryegrass, Italian; [2]): 50
- Plant response rating, Ryegrass, Italian (ryegrass, Italian; [6]): 40
- Ryegrass, Italian plant response rating (ryegrass, Italian; [9]): 70

SMILES: O=C1NCC(c2cccc(C(F)(F)F)c2)C1C(=O)Nc1cccc(Cl)c1F (stereo not shown) [Compound 316]
- Plant response rating, Ryegrass, Italian (ryegrass, Italian; [8]): 20
- Plant response rating, Ryegrass, Italian (ryegrass, Italian; [2]): 30
- Plant response rating, Ryegrass, Italian (ryegrass, Italian; [6]): 20
- Ryegrass, Italian plant response rating (ryegrass, Italian; [9]): 50

SMILES: O=C1NCC(c2cccc(OC(F)F)c2)C1C(=O)Nc1ccc(F)c(F)c1F (stereo not shown) [Compound 325]
- Plant response rating, Ryegrass, Italian (ryegrass, Italian; [8]): 30
- Plant response rating, Ryegrass, Italian (ryegrass, Italian; [2]): 50
- Plant response rating, Ryegrass, Italian (ryegrass, Italian; [6]): 30
- Ryegrass, Italian plant response rating (ryegrass, Italian; [9]): 50
